Experiment [1] concerns the target T1, GST fusion human ERK2 protein (Homo sapiens, UniProt P28482).
T1 construct: purchased Carna Biosciences, Inc; host or cells: E. coli expression system
Briefly: ERK2 enzyme assay (2). In kind it is biochemical. As to conditions: ERK2 enzyme assay (2); read-out: ERK2 enzyme inhibitory activity (2). In a few lines:
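GST-tagged human ERK2 expressed in E. coli (1.25 nmol/L) was preincubated with compound for 15 min at room temperature in pH 7.5 Hepes buffer with MgCl2, DTT and Brij35. Reaction with FL-Peptide 8 (final 4.25 μmol/L) and ATP (final 1 mmol/L) ran 120 min at 25 °C; EDTA stopped it, and phosphorylated peptide was quantified by mobility-shift separation to derive IC50.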

The target of another experiment is T2, human PI3Kα protein (Homo sapiens, UniProt P42336).
T2 construct: purchased Carna Biosciences, Inc; host or cells: baculovirus expression system
As to the kind of experiment: PI3Kα enzyme assay (ADP-Glo). In kind it is biochemical. The note with it: read-out: PI3Kα enzyme inhibitory activity. In a few lines:
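Biotinylated human PI3Kα (baculovirus-expressed, 4.5 nmol/L) pre-incubated 15 min with compound in Tris-HCl pH 7.5, MgCl2, BSA; reaction 60 min at 25° C with 50 μmol/L PIP2 and 100 μmol/L ATP final. ADP quantified by ADP-Glo luminescence; IC50 calculated.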
On the technique in general: In ADP-Glo the light output rises with the ADP produced.

T1 sequence (P28482 whole entry, the tested form may be a part): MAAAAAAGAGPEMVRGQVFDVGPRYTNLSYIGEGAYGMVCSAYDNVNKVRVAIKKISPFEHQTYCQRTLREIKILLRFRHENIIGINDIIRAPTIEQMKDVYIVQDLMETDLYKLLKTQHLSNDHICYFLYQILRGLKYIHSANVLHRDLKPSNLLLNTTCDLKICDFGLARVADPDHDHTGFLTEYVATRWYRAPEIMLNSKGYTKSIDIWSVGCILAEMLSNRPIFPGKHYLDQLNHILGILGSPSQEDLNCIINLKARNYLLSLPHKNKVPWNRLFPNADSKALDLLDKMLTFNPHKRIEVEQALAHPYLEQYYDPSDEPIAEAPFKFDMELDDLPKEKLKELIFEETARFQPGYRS
T2 sequence (P42336 whole entry): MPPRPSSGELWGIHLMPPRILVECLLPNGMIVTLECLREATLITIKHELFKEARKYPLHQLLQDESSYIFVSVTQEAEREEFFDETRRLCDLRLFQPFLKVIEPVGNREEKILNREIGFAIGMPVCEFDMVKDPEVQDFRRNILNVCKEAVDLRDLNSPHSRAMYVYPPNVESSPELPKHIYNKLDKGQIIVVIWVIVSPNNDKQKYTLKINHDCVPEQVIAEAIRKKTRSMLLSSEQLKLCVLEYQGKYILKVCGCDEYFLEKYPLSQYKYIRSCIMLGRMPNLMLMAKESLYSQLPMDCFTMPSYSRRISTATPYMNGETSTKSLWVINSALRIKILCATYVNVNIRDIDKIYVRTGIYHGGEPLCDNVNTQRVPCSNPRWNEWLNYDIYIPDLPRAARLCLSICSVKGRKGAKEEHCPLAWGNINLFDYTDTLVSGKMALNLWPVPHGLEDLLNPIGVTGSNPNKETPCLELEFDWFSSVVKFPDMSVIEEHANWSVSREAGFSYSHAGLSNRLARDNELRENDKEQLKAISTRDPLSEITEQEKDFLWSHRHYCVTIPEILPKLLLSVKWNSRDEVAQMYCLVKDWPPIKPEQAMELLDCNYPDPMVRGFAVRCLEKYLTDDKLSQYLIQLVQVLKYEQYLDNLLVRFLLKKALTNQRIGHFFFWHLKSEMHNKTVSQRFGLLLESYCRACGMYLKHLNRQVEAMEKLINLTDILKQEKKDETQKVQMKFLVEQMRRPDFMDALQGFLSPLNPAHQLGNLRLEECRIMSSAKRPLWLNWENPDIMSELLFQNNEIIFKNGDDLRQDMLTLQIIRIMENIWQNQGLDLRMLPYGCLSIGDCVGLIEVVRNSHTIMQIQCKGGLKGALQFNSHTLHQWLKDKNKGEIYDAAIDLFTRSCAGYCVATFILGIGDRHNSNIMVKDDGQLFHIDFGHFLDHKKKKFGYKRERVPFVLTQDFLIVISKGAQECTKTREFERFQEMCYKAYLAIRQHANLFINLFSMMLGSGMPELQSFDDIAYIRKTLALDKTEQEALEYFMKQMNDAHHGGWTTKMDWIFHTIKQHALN
T2 sequence (P27986 whole entry partner): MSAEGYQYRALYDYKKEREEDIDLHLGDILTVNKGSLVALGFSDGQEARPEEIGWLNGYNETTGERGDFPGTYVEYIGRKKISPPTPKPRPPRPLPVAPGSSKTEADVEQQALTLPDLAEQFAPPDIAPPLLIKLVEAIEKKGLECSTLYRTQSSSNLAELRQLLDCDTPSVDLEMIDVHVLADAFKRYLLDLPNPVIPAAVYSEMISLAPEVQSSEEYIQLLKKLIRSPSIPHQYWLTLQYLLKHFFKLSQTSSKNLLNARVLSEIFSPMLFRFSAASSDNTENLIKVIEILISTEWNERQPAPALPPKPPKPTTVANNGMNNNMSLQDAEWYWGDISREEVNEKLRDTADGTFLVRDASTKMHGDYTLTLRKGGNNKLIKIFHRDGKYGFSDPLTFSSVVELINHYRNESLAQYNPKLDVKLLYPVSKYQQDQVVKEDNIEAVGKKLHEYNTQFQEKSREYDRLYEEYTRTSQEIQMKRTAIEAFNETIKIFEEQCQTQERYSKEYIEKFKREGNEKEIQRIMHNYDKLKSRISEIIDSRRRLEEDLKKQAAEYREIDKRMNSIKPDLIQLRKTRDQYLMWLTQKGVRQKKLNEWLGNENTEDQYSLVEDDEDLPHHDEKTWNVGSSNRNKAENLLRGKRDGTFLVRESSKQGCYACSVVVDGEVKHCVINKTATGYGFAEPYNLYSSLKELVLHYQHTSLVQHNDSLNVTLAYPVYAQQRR

Regarding `CCN(CCO[Si](C)(C)C(C)(C)C)c1cnnc(Nc2ccc3ncc(-c4cnn(C)c4)cc3n2)c1` [Example 0524], the IC50 in experiment [1] is less than 1 µM; on human PI3Kα protein, 10 to 50 µM.

As for `CCN(CCO)c1cnnc(Nc2ccc3ncc(-c4cnn(C)c4)cc3n2)c1` [Example 0525], the IC50 (in experiment [1]; on human PI3Kα protein) was less than 1 µM each time.

In the case of `Cn1cc(-c2cnc3ccc(Nc4cc(C(C)(C)C)cnn4)nc3c2)cn1` [Example 0526], the IC50 (in experiment [1]; on human PI3Kα protein) was less than 1 µM throughout.

`Cc1cnnc(Nc2ccc3ncc(-c4cn(C)nc4-c4cccnc4)cc3n2)c1` [Example 0527]: the IC50 was 1 to 10 µM in experiment [1] and less than 1 µM at human PI3Kα protein.

Regarding `CC(=O)N1CCC(Cn2cc(-c3cnc4ccc(Nc5cc(C(C)C)cnn5)nc4c3)cn2)CC1` [Example 0528, 1-(4-((4-(6-((5-Isopropylpyridazin-3-yl)amino)-1,5-naphthyridin-3-yl)-1H-pyrazol-1-yl)methyl)piperidin-1-yl)ethanone], the IC50 (in experiment [1]; on human PI3Kα protein) was less than 1 µM throughout.

In the case of `CC(C)c1cnnc(Nc2ccc3ncc(-c4cnn(CC5CCN(C(=O)N(C)C)CC5)c4)cc3n2)c1` [Example 0529], the IC50 (in experiment [1]; on human PI3Kα protein) was less than 1 µM in each case.

As for `CCN(CC)C(=O)N1CCC(Cn2cc(-c3cnc4ccc(Nc5cc(C(C)C)cnn5)nc4c3)cn2)CC1` [Example 0531], the IC50 (in experiment [1]; on human PI3Kα protein) was less than 1 µM throughout.

`CC(C)c1cnnc(Nc2ccc3ncc(-c4cnn(CC5CCN(C(=O)N6CCOCC6)CC5)c4)cc3n2)c1` [Example 0532]: the IC50 (in experiment [1]; on human PI3Kα protein) was less than 1 µM throughout.

Take `CC(C)c1cnnc(Nc2ccc3ncc(-c4cnn(CC5CCN(C(=O)N6CCCCC6)CC5)c4)cc3n2)c1` [Example 0533]: the IC50 (in experiment [1]; on human PI3Kα protein) was less than 1 µM each time.

Consider `CC(C)c1cnnc(Nc2ccc3ncc(-c4cnn(CC5CCN(C(=O)C6CC6)CC5)c4)cc3n2)c1` [Example 0534], for which the IC50 (in experiment [1]; at human PI3Kα protein) was less than 1 µM in each case.

With `CC(C)CC(=O)N1CCC(Cn2cc(-c3cnc4ccc(Nc5cc(C(C)C)cnn5)nc4c3)cn2)CC1` [Example 0535], the IC50 (in experiment [1]; on human PI3Kα protein) was less than 1 µM each time.

Consider `CC(C)C(=O)N1CCC(Cn2cc(-c3cnc4ccc(Nc5cc(C(C)C)cnn5)nc4c3)cn2)CC1` [Example 0536], for which the IC50 (in experiment [1]; on human PI3Kα protein) was less than 1 µM each time.

Regarding `COCC(=O)N1CCC(Cn2cc(-c3cnc4ccc(Nc5cc(C(C)C)cnn5)nc4c3)cn2)CC1` [Example 0537], the IC50 (in experiment [1]; on human PI3Kα protein) was less than 1 µM throughout.

In the case of `CC(C)c1cnnc(Nc2ccc3ncc(-c4cnn(CC5CCN(C(=O)C6CCCCC6)CC5)c4)cc3n2)c1` [Example 0538], the IC50 (in experiment [1]; on human PI3Kα protein) was less than 1 µM each time.

As to `CC(C)c1cnnc(Nc2ccc3ncc(-c4cnn(CC5CCN(C(=O)N6CCCC6)CC5)c4)cc3n2)c1` [Example 0539], the IC50 (in experiment [1]; at human PI3Kα protein) was less than 1 µM in each case.

In the case of `CC(=O)N1CCC(Nc2cnc3ccc(Nc4cc(C(C)C)cnn4)nc3c2)CC1` [Example 0540, 1-(4-((6-((5-Isopropylpyridazin-3-yl)amino)-1,5-naphthyridin-3-yl)amino)piperidin-1-yl)ethanone], the IC50 was 1 to 10 µM in experiment [1] and less than 1 µM at human PI3Kα protein.

With `CC(=O)N1CCCC(Nc2cnc3ccc(Nc4cc(C(C)C)cnn4)nc3c2)C1` (stereo not drawn) [Example 0541], the IC50 was 1 to 10 µM in experiment [1] and less than 1 µM on human PI3Kα protein.

For the compound `CCc1cnnc(Nc2ccc3ncc(-c4cn(C)nc4-c4cccnc4)cc3n2)c1` [Example 0542, N-(5-ethylpyridazin-3-yl)-7-(1-methyl-3-(pyridin-3-yl)-1H-pyrazol-4-yl)-1,5-naphthyridine-2-amine], the IC50 (in experiment [1]; at human PI3Kα protein) was less than 1 µM throughout.

In the case of `Cn1cc(-c2cnc3ccc(Nc4cc(C(C)(C)O)cnn4)nc3c2)cn1` [Example 0543, 2-(6-((7-(1-Methyl-1H-pyrazol-4-yl)-1,5-naphthyridin-2-yl)amino)pyridazin-4-yl)propan-2-ol], the IC50 (in experiment [1]; on human PI3Kα protein) was less than 1 µM each time.

For `CC(C)NC(=O)N1CCC(Cn2cc(-c3cnc4ccc(Nc5cc(C(C)C)cnn5)nc4c3)cn2)CC1` [Example 0544], the IC50 (in experiment [1]; on human PI3Kα protein) was less than 1 µM each time.

As for `Cc1nn(C)cc1-c1cnc2ccc(Nc3cc(C(C)(C)O)cnn3)nc2c1` [Example 0547], the IC50 (in experiment [1]; on human PI3Kα protein) was less than 1 µM each time.

For the compound `CC(=O)N1CCCC(Cn2cc(-c3cnc4ccc(Nc5cc(C(C)C)cnn5)nc4c3)cn2)C1` (stereo not drawn) [Example 0548], the IC50 (in experiment [1]; at human PI3Kα protein) was less than 1 µM each time.

With `CC(C)c1ccnc(Nc2ccc3ncc(-c4cnn(C)c4)cc3n2)c1` [Example 0551, N-(4-isopropylpyridin-2-yl)-7-(1-methyl-1H-pyrazol-4-yl)-1,5-naphthyridine-2-amine], the IC50 in experiment [1] is 10 to 50 µM; on human PI3Kα protein, less than 1 µM.

`CC(C)c1cnnc(Nc2ccc3ncc(-c4cn(C)nc4-c4cncnc4)cc3n2)c1` [Example 0553]: the IC50 (in experiment [1]; at human PI3Kα protein) was less than 1 µM each time.

For `Cn1cc(-c2cnc3ccc(Nc4cc(N5CCOCC5)cnn4)nc3c2)cn1` [Example 0554, 7-(1-methyl-1H-pyrazol-4-yl)-N-(5-morpholinopyridazin-3-yl)-1,5-naphthyridine-2-amine], the IC50 (in experiment [1]; on human PI3Kα protein) was less than 1 µM each time.

With `Cc1cncc(-c2nn(C)cc2-c2cnc3ccc(Nc4cc(C(C)C)cnn4)nc3c2)c1` [Example 0555], the IC50 (in experiment [1]; at human PI3Kα protein) was less than 1 µM throughout.

Turning to `CC(C)c1cnnc(Nc2ccc3ncc(-c4cnn(C[C@@H]5CCC(=O)N5)c4)cc3n2)c1` [Example 0556], the IC50 (in experiment [1]; at human PI3Kα protein) was less than 1 µM each time.

Turning to `CC(C)c1cnnc(Nc2ccc3ncc(-c4cnn(CC(=O)N5CCOCC5)c4)cc3n2)c1` [Example 0558], the IC50 (in experiment [1]; at human PI3Kα protein) was less than 1 µM throughout.

Turning to `Cn1cc(-c2cnc3ccc(Nc4cc(C(C)(C)CO[Si](C)(C)C(C)(C)C)cnn4)nc3c2)cn1` [Example 0559, N-(5-(1-((tert-butyldimethylsilyl)oxy)-2-methylpropan-2-yl)pyridazin-3-yl)-7-(1-methyl-1H-pyrazol-4-yl)-1,5-naphthyridine-2-amine], the figures for the IC50 (in experiment [1]; on human PI3Kα protein) were less than 1 µM and 10 to 50 µM, respectively.

Regarding `Cn1cc(-c2cnc3ccc(Nc4cc(C(C)(C)CO)cnn4)nc3c2)cn1` [Example 0560, 2-methyl-2-(6-((7-(1-methyl-1H-pyrazol-4-yl)-1,5-naphthyridin-2-yl)amino)pyridazin-4-yl)propan-1-ol], the IC50 (in experiment [1]; at human PI3Kα protein) was less than 1 µM throughout.

With `CC(C)c1cnnc(Nc2ccc3ncc(-c4cnn(CC(=O)N5CCCCC5)c4)cc3n2)c1` [Example 0561], the IC50 (in experiment [1]; on human PI3Kα protein) was less than 1 µM in each case.

As for `COCC(C)(C)c1cnnc(Nc2ccc3ncc(-c4cnn(C)c4)cc3n2)c1` [Example 0562], the IC50 (in experiment [1]; at human PI3Kα protein) was less than 1 µM throughout.

As for `CC(C)c1cnnc(Nc2ccc3ncc(-c4cnn(C5CC5)c4)cc3n2)c1` [Example 0563, 7-(1-Cyclopropyl-1H-pyrazol-4-yl)-N-(5-isopropylpyridazin-3-yl)-1,5-naphthyridine-2-amine], the IC50 (in experiment [1]; on human PI3Kα protein) was less than 1 µM in each case.

These data come from patent US9783536B2, “Nitrogen-containing heterocyclic compound or salt thereof” (FUJIFILM Corporation, priority 2013, dated 2017).
